From patent EP2931723B1, “NEW BICYCLIC COMPOUNDS AND THEIR USE AS ANTIBACTERIAL AGENTS AND -LACTAMASE INHIBITORS” (Fedora Pharmaceuticals Inc., priority 2012, dated 2014)

Legend:
Test in all cases: MIC, antibacterial and synergistic activity
Type in all cases: cell-based
E.coli JMI 4103 = E.coli JMI 4103 (KPC-2, Tem-1, CMY-Type)
E. coli JMI 10767 [1] = settings: E. coli JMI 10767 (Wt)
E. coli JMI 2692 = E. coli JMI 2692 (NDM-1, TEM-1, CTX-M-15)
Protocol: (§1) In the Tables 10 - 12, compounds herein disclosed were tested in combination with various antibiotics against metallo β-lactamase producing bacteria.

K. pneumo JMI 2693 = K. pneumo JMI 2693 (NDM-1 (Cpase))
Protocol: as §1

K. pneumo JMI 2697 = K. pneumo JMI 2697 (IMP-4 (Cpase))
Protocol: as §1

A. baumanii JMI 2659 = A. baumanii JMI 2659 (Ges-14 (Cpase))
K. pneumo JMI 4088 [2] = settings: K. pneumo JMI 4088 (KPC-3 (Cpase)); substance alone
E. coli JMI 4080 = tested on: E. coli JMI 4080
P. aerug JMI 149 = P. aerug JMI 149 (Bla+++D+)
K. pneumo JMI 2673 [3] = settings: K. pneumo JMI 2673 (CTX-M14 (ESBL)); substance alone
K. pneumo JMI 2674 = K. pneumo JMI 2674 (CTX-M15 (ESBL))
Procedure, shortened: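 Antibacterial activity was assessed as minimum inhibitory concentrations against a β-lactamase-producing bacterial strain. Each test inhibitor was combined with an antibiotic, with the inhibitor held at a fixed 4 µg/mL, to determine whether it acted synergistically and restored the antibiotic's effect against the resistant organism.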

E. coli JMI 2665 = tested on: E. coli JMI 2665
Protocol: (§2) In the Tables 10 - 12, compounds herein disclosed were tested in combination with various antibiotics against metallo β-lactamase producing bacteria. Table 3: Synergy of the inhibitor Ex. 1 (4 µg/mL) in combination with antibiotics

E. coli JMI 10770 = E. coli JMI 10770 (CTX-M15 (Hyper ESBL))
Protocol: as §2

E. coli JMI 10768 = E. coli JMI 10768 (CTX-M15 (Weak ESBL))
Protocol: as §2

E. coli JMI 2671 = tested on: E. coli JMI 2671
Procedure, shortened: (§3)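 Read-out is the MIC of each antibiotic with 4 µg/mL inhibitor present, in metallo β-lactamase-producing strains.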

P. aerug JMI 2686 = P. aerug JMI 2686 (KPC-2 (Cpase))
Procedure, shortened: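 This antibacterial synergy assay measured the minimum inhibitory concentration of antibiotics combined with the disclosed inhibitor compounds. The inhibitor was held at 4 µg/mL throughout. The aim was to see whether the added compound strengthened the antibiotic's action against the tested bacteria.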

K. pneumo JMI 4088 [4] = settings: K. pneumo JMI 4088 (KPC-3 (Cpase))
Procedure, shortened: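 Minimum inhibitory concentrations were measured for antibiotics given together with the test inhibitor, held at 4 µg/mL, against bacteria that produce β-lactamase. The purpose was to see whether the inhibitor restores or boosts antibacterial activity, that is, synergy with the antibiotic.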

K. pneumo JMI 2673 [5] = settings: K. pneumo JMI 2673 (CTX-M14 (ESBL))
Procedure, shortened: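 Compounds were evaluated together with various antibiotics to measure synergistic antibacterial activity. For each combination, the minimum inhibitory concentration of the antibiotic was recorded while the inhibitor was present at a constant 4 µg/mL.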

E. coli JMI 10767 [6] = settings: E. coli JMI 10767 (Wt); remark: listed apart in the source
Protocol: as §2

K.pneumo JMI 4109 [7] = settings: K.pneumo JMI 4109 (SHV-1, SHV-12)
Procedure, shortened: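 Antibacterial synergy was assessed by pairing each inhibitor compound, at a constant concentration of 4 µg/mL, with β-lactam antibiotics. The combinations were run against bacterial strains that produce β-lactamases, and the readout was the minimum inhibitory concentration of the antibiotic in the presence of the inhibitor.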

K. pneumo JMI 2699 = K. pneumo JMI 2699 (VIM-1, CTX-M3)
Procedure, shortened: as §3

K.pneumo JMI 4109 [8] = settings: K.pneumo JMI 4109 (SHV-1, SHV-12); substance alone
[9] = Aztreonam + inhibitor at 4 µg/mL
[10] = Ceftazidime + inhibitor at 4 µg/mL
[11] = Meropenem + inhibitor at 4 µg/mL

For `O=C(NO[C@H]1CCCNC1)[C@@H]1CC[C@@H]2CN1C(=O)N2OS(=O)(=O)O` [Ex. 2, (2S,5R)-7-Oxo-N-[(3S)-piperidin-3-yloxy] -6-(sulfooxy)-1,6-diazabicyclo[3.2.1]octane-2-carboxamide], the “MIC Aztreonam + inhibitor” value (E.coli JMI 4103; [9]) was over 4 µg/mL, the “MIC Ceftazidime + inhibitor” value (E.coli JMI 4103; [10]) was 8 µg/mL and the “MIC Meropenem + inhibitor” value (E.coli JMI 4103; [11]) was “≤.031 µg/mL”. For the same compound, the MIC (E.coli JMI 4103; Escherichia coli, JMI4103, substance alone) was 8 µg/mL, the “MIC Meropenem + inhibitor” value (E. coli JMI 10767 [1]; [11]) was “≤.031 µg/mL” and the MIC (E. coli JMI 10767 [1]; Escherichia coli, JMI10767, substance alone) was 4 µg/mL. For the same compound, the “MIC Aztreonam + inhibitor” value (E. coli JMI 2692; [9]) was “≤.062 µg/mL”, the “MIC Ceftazidime + inhibitor” value (E. coli JMI 2692; [10]) was at most 0.25 µg/mL and the “MIC Meropenem + inhibitor” value (E. coli JMI 2692; [11]) was “≤.031 µg/mL”. For the same compound, the MIC (E. coli JMI 2692; Escherichia coli, JMI2692, substance alone, read-out: MIC) was at most 0.5 µg/mL, the “MIC Aztreonam + inhibitor” value (K. pneumo JMI 2693; [9]) was “≤.062 µg/mL” and the “MIC Ceftazidime + inhibitor” value (K. pneumo JMI 2693; [10]) was at most 0.25 µg/mL. For the same compound, the “MIC Meropenem + inhibitor” value (K. pneumo JMI 2693; [11]) was “≤.031 µg/mL”, the MIC (K. pneumo JMI 2693; substance alone) was 4 µg/mL and the “MIC Aztreonam + inhibitor” value (K. pneumo JMI 2697; [9]) was “≤.062 µg/mL”. The “MIC Ceftazidime + inhibitor” value (K. pneumo JMI 2697; [10]) was 0.5 µg/mL, the “MIC Meropenem + inhibitor” value (K. pneumo JMI 2697; [11]) was “≤.031 µg/mL” and the MIC (K. pneumo JMI 2697; substance alone) was 4 µg/mL. For the same compound, the “MIC Aztreonam + inhibitor” value (A. baumanii JMI 2659; [9]) was over 4 µg/mL, the “MIC Ceftazidime + inhibitor” value (A. baumanii JMI 2659; [10]) was over 16 µg/mL and the “MIC Meropenem + inhibitor” value (A. baumanii JMI 2659; [11]) was over 2 µg/mL. The MIC (A. baumanii JMI 2659; Acinetobacter baumannii, JMI2659, substance alone, read-out: MIC) was over 16 µg/mL, the MIC (K. pneumo JMI 4088 [2]) was 1 µg/mL and the “MIC Aztreonam + inhibitor” value (E. coli JMI 4080; E. coli JMI 4080 (Tem-10), Aztreonam + inhibitor at 4 µg/mL) was “≤.062 µg/mL”. For the same compound, the “MIC Ceftazidime + inhibitor” value (E. coli JMI 4080; E. coli JMI 4080 (Tem-10), Ceftazidime + inhibitor at 4 µg/mL) was at most 0.25 µg/mL, the “MIC Meropenem + inhibitor” value (E. coli JMI 4080; E. coli JMI 4080 (Tem-10), Meropenem + inhibitor at 4 µg/mL) was “≤.031 µg/mL” and the MIC (E. coli JMI 4080; Escherichia coli, JMI4080, E. coli JMI 4080 (Tem-10), substance alone) was 4 µg/mL. The “MIC Aztreonam + inhibitor” value (P. aerug JMI 149; [9]) was over 4 µg/mL, the “MIC Ceftazidime + inhibitor” value (P. aerug JMI 149; [10]) was 4 µg/mL and the “MIC Meropenem + inhibitor” value (P. aerug JMI 149; [11]) was 0.5 µg/mL. The MIC (P. aerug JMI 149; substance alone, read-out: MIC) was over 16 µg/mL, the MIC (K. pneumo JMI 2673 [3]) was over 16 µg/mL and the “MIC Aztreonam + inhibitor” value (K. pneumo JMI 2674; [9]) was 0.125 µg/mL. The “MIC Ceftazidime + inhibitor” value (K. pneumo JMI 2674; [10]) was at most 0.25 µg/mL, the “MIC Meropenem + inhibitor” value (K. pneumo JMI 2674; [11]) was 0.125 µg/mL and the “MIC Aztreonam + inhibitor” value (E. coli JMI 2665; E. coli JMI 2665 (CMY-2 (Plasmid Cpase)), Aztreonam + inhibitor at 4 µg/mL) was “≤.062 µg/mL”. For the same compound, the “MIC Ceftazidime + inhibitor” value (E. coli JMI 2665; E. coli JMI 2665 (CMY-2 (Plasmid Cpase)), Ceftazidime + inhibitor at 4 µg/mL) was at most 0.25 µg/mL, the “MIC Meropenem + inhibitor” value (E. coli JMI 2665; E. coli JMI 2665 (CMY-2 (Plasmid Cpase)), Meropenem + inhibitor at 4 µg/mL) was “≤.031 µg/mL” and the MIC (E. coli JMI 2665; Escherichia coli, JMI2665) was at most 0.5 µg/mL. For the same compound, the “MIC Aztreonam + inhibitor” value (E. coli JMI 10770; [9]) was “≤.062 µg/mL”, the “MIC Ceftazidime + inhibitor” value (E. coli JMI 10770; [10]) was at most 0.25 µg/mL and the “MIC Meropenem + inhibitor” value (E. coli JMI 10770; [11]) was “≤.031 µg/mL”. The “MIC Aztreonam + inhibitor” value (E. coli JMI 10768; [9]) was “≤.062 µg/mL”, the “MIC Ceftazidime + inhibitor” value (E. coli JMI 10768; [10]) was at most 0.25 µg/mL and the MIC (E. coli JMI 10768; Escherichia coli, JMI10768, substance alone) was 4 µg/mL. For the same compound, the “MIC Aztreonam + inhibitor” value (E. coli JMI 2671; E. coli JMI 2671 (VIM-19 (Cpase)), Aztreonam + inhibitor at 4 µg/mL) was “≤.062 µg/mL”, the “MIC Ceftazidime + inhibitor” value (E. coli JMI 2671; E. coli JMI 2671 (VIM-19 (Cpase)), Ceftazidime + inhibitor at 4 µg/mL) was 0.5 µg/mL and the “MIC Meropenem + inhibitor” value (E. coli JMI 2671; E. coli JMI 2671 (VIM-19 (Cpase)), Meropenem + inhibitor at 4 µg/mL) was 0.125 µg/mL. For the same compound, the MIC (E. coli JMI 2671; Escherichia coli, JMI2671, E. coli JMI 2671 (VIM-19 (Cpase)), substance alone) was over 16 µg/mL, the “MIC Aztreonam + inhibitor” value (P. aerug JMI 2686; [9]) was over 4 µg/mL and the “MIC Ceftazidime + inhibitor” value (P. aerug JMI 2686; [10]) was 16 µg/mL. The “MIC Meropenem + inhibitor” value (P. aerug JMI 2686; [11]) was over 2 µg/mL, the “MIC Aztreonam + inhibitor” value (K. pneumo JMI 4088 [4]; [9]) was 0.5 µg/mL and the “MIC Ceftazidime + inhibitor” value (K. pneumo JMI 4088 [4]; [10]) was at most 0.25 µg/mL. For the same compound, the “MIC Meropenem + inhibitor” value (K. pneumo JMI 4088 [4]; [11]) was 0.062 µg/mL, the “MIC Aztreonam + inhibitor” value (K. pneumo JMI 2673 [5]; [9]) was “≤.062 µg/mL” and the “MIC Ceftazidime + inhibitor” value (K. pneumo JMI 2673 [5]; [10]) was at most 0.25 µg/mL. For the same compound, the “MIC Meropenem + inhibitor” value (K. pneumo JMI 2673 [5]; [11]) was “≤.031 µg/mL”, the “MIC Aztreonam + inhibitor” value (E. coli JMI 10767 [6]; [9]) was “≤.062 µg/mL” and the “MIC Ceftazidime + inhibitor” value (E. coli JMI 10767 [6]; [10]) was at most 0.25 µg/mL. The “MIC Aztreonam + inhibitor” value (K.pneumo JMI 4109 [7]; [9]) was “≤.062 µg/mL”, the “MIC Ceftazidime + inhibitor” value (K.pneumo JMI 4109 [7]; [10]) was at most 0.25 µg/mL and the “MIC Meropenem + inhibitor” value (K.pneumo JMI 4109 [7]; [11]) was “≤.031 µg/mL”. The “MIC Aztreonam + inhibitor” value (K. pneumo JMI 2699; [9]) was “≤.062 µg/mL”, the “MIC Ceftazidime + inhibitor” value (K. pneumo JMI 2699; [10]) was at most 0.25 µg/mL and the “MIC Meropenem + inhibitor” value (K. pneumo JMI 2699; [11]) was 0.062 µg/mL. For the same compound, the MIC (K. pneumo JMI 2699; substance alone, read-out: MIC) was 4 µg/mL and the MIC (K.pneumo JMI 4109 [8]) was 16 µg/mL.
